Data: US6635649B2, “Piperazinedione compounds” (priority 2000, dated 2003)

Structure (SMILES) | melting point
O=c1[nH]c(=Cc2ccc(OCc3ccccc3)cn2)c(=O)[nH]c1=Cc1ccc(OCc2ccccc2)cn1 [Compound 10, 3,6-di[(5-phenylmethoxypyridin-2-yl)methylidene]piperazine-2,5-dione] | 283 to 328 °C
O=c1[nH]c(=Cc2ccco2)c(=O)[nH]c1=Cc1ccc(OCc2ccccc2)cn1 [Compound 7, 3-[(5-benzyloxypyridin-2-yl)methylidene]-6-[(furan-2-yl)methylidene]piperazine-2,5-dione] | 256 to 257 °C
O=c1[nH]c(=Cc2ccc(OCc3ccccc3)cn2)c(=O)[nH]c1=Cc1ccccn1 [Compound 9, 3-[(5-benzyloxypyridin-2-yl)methylidene]-6-[(2-pyridinyl)methylidene]piperazine-2,5-dione] | 248 to 250 °C

More lines, now with the values ahead:

melting point | Structure (SMILES)
215 to 216 °C | CC(=O)N1CC(=O)NC(Cc2ccc(OCc3ccccc3)cn2)C1=O (centres unmarked) [Compound 12, 1-acetyl-3-[(5-benzyloxypyridin-2-yl)methyl]piperazine-2,5-dione]
228 to 231 °C | O=C1NC(Cc2ccc(OCc3ccccc3)cn2)C(=O)NC1Cc1ccc(OCc2ccccc2)cn1 (centres unmarked) [Compound 13, 3,6-di[(5-benzyloxypyridin-2-yl)methyl]piperazine-2,5-dione]
